# Results: patent publication US8912144B2, “Method for treating stroke via administration of NEP1-40 and inosine” (Children's Medical Center Corporation, priority 2003, dated 2014)
# Tested on: corticospinal neurons (CSNs/CSMNs)
# Test: Laser-capture microdissection and Illumina microarray gene expression in corticospinal neurons contralateral to stroke
# Type: in vivo, rat
# Conditions: for Signal Intensity, Treatment after Stroke: Inosine: CSMNs contralateral to SMA infarct
# Description: In a separate group of animals (n=20), layer V pyramidal cells of the sensorimotor cortex were retrogradely labeled by injecting Alexa-Fluor-488-conjugated cholera toxin B subunit (CTB; 300 U/μl in sterile saline) into the cervical spinal cord. For this, animals were anesthetized with a combination of ketamine and Domitor (medetomidine) and a laminectomy was performed at the cervical level of the spinal cord (C2-C4). CTB was stereotaxically delivered into four sites lateral to the corticospinal tract. Injections (1.3 μl) were spaced 1 mm apart on the rostro-caudal axis, and were made 0.5 mm to the left and right of the midline. After allowing two weeks for transport of the tracer, we performed either sham surgery with no treatment (n=6) or stroke surgery combined with saline (n=3) or inosine (n=4) treatment as described above. Seven days later, animals were decapitated under transient gas anesthesia, brains were removed and rinsed in cold RPMI medium, and a tissue block containing the sensorimotor cortex was dissected and placed in OCT Tissue Tek Medium (Sakura Finetek USA Inc., CA) on dry ice within five minutes of death. Ten μm sections were cut onto precleaned Gold Seal RITE-ON glass slides (Gold Seal Prod-ucts, Portsmouth, N.H.), placed on dry ice, and rapidly stored at −80° C.
# Slide-mounted sections were thawed and dehydrated in RNAse-free ethanol gradients and xylene. Retro-gradely labeled, fluorescent cortical pyramidal cells in the undamaged hemisphere were individually captured using the Arcturus VERITAS system. ≧500 cells were collected from each animal and stored in Arcturus extraction buffer at −80° C. Total RNA was extracted from cells using the Micro-to-Midi TotalRNA Purification System (Invitrogen, Carlsbad Calif.) and double-amplified using the TargetAmp 2-Round Aminoallyl-aRNA Amplification kit 1.0 (Epicentre, Madison, Wis.). Amplified RNA was checked for average fragment length using the Agilent RNA 6000 Nano LabChip kit (Agilent Technologies, Santa Clara, Calif.) and then biotinylated and hybridized (1 μg) on Illumina RatRef-12 Expression BeadChip arrays (Illumina, San Diego Calif.), querying the expression of >22,000 RefSeq-curated rat transcripts. Results were obtained from a total of 15 samples representing 6 untreated controls, 4 animals with stroke treated with saline and 5 animals with stroke treated with inosine. Slides were processed and scanned with Illumina BeadStation platform according to the manufacturer protocol.
# Raw data was analyzed using Bioconductor packages (www.bioconductor.org, (Gentleman et al., 2004)). Low level quality-control analysis was performed using inter-array Pearson correlation and clustering based on variance. Two arrays (1 saline and 1 inosine-treated) were outliers and were excluded from the analysis. Data was normalized using quantile normalization, and analysis of differential expression was performed using a linear model fitting (LIMMA package, (Smyth, 2005). Differentially expressed genes were classified according to gene ontology using Bioconductor packages and online tools (DAVID, http://david.abcc.ncifcrf.gov/). Pathway analysis was carried out using Ingenuity Pathway Analysis (Ingenuity Systems, www.ingenuity.com).
# [1] = ILMN_161110, similar to myo-inositol 1-phosphate synthase A1
compound,measurement,setting,value
OC[C@H]1O[C@@H](n2cnc3c(O)ncnc32)[C@H](O)[C@@H]1O [inosine],"Fold-Induction Stroke, ino vs. cntrl, Rpl31",ILMN_70426,0.90
same,"Signal Intensity, Rpl31","ILMN_70426, inosine after stroke",831
same,"Fold-Induction Stroke, ino vs. cntrl",[1],2.90
same,Signal Intensity Inosine,[1],3241
same,"Fold-Induction Stroke, ino vs. cntrl",Ifitm3 ILMN_48088,2.71
same,Signal Intensity Inosine,Ifitm3 ILMN_48088,2516
same,"Fold-Induction Stroke, ino vs. cntrl",Igfbp2 ILMN_54332,3.97
same,Signal Intensity Inosine,Igfbp2 ILMN_54332,3801
same,"Fold-Induction Stroke, ino vs. cntrl",Ing4 ILMN_54994,1.01
same,Signal Intensity Inosine,Ing4 ILMN_54994,1169
same,"Fold-Induction Stroke, ino vs. cntrl",Irf3 ILMN_51700,2.92
same,Signal Intensity Inosine,Irf3 ILMN_51700,12720
same,"Fold-Induction Stroke, ino vs. cntrl",LOC291847 ILMN_62527,1.32
same,Signal Intensity Inosine,LOC291847 ILMN_62527,558
same,"Fold-Induction Stroke, ino vs. cntrl",LOC294337 ILMN_68161,2.56
same,Signal Intensity Inosine,LOC294337 ILMN_68161,2622
same,"Fold-Induction Stroke, ino vs. cntrl",LOC295941 ILMN_58921,1.07
same,Signal Intensity Inosine,LOC295941 ILMN_58921,3970
same,"Fold-Induction Stroke, ino vs. cntrl",LOC300149 ILMN_48288,1.34
same,Signal Intensity Inosine,LOC300149 ILMN_48288,2789
same,"Fold-Induction Stroke, ino vs. cntrl",LOC301122 ILMN_62401,1.22
same,Signal Intensity Inosine,LOC301122 ILMN_62401,925
same,"Fold-Induction Stroke, ino vs. cntrl",LOC303702 ILMN_64738,1.72
same,Signal Intensity Inosine,LOC303702 ILMN_64738,899
same,"Fold-Induction Stroke, ino vs. cntrl",LOC303790 ILMN_56510,1.45
same,Signal Intensity Inosine,LOC303790 ILMN_56510,2300
same,"Fold-Induction Stroke, ino vs. cntrl",LOC304116 ILMN_63846,0.99
same,Signal Intensity Inosine,LOC304116 ILMN_63846,393
same,"Fold-Induction Stroke, ino vs. cntrl",LOC305076 ILMN_60367,1.56
same,Signal Intensity Inosine,LOC305076 ILMN_60367,824
same,"Fold-Induction Stroke, ino vs. cntrl",LOC305633 ILMN_51277,2.99
same,Signal Intensity Inosine,LOC305633 ILMN_51277,2047
same,"Fold-Induction Stroke, ino vs. cntrl",LOC317579 ILMN_58258,1.52
same,Signal Intensity Inosine,LOC317579 ILMN_58258,733
same,"Fold-Induction Stroke, ino vs. cntrl",LOC360627 ILMN_61895,2.62
same,Signal Intensity Inosine,LOC360627 ILMN_61895,1064
same,"Fold-Induction Stroke, ino vs. cntrl",LOC360644 ILMN_48641,3.68
same,Signal Intensity Inosine,LOC360644 ILMN_48641,602
same,"Fold-Induction Stroke, ino vs. cntrl",LOC361080 ILMN_61547,0.40
same,Signal Intensity Inosine,LOC361080 ILMN_61547,295
same,"Fold-Induction Stroke, ino vs. cntrl",LOC362015 ILMN_62932,1.37
same,Signal Intensity Inosine,LOC362015 ILMN_62932,1285
same,"Fold-Induction Stroke, ino vs. cntrl",LOC362304 ILMN_53204,1.34
same,Signal Intensity Inosine,LOC362304 ILMN_53204,5067
same,"Fold-Induction Stroke, ino vs. cntrl",LOC362857 ILMN_64100,0.43
same,Signal Intensity Inosine,LOC362857 ILMN_64100,1081
same,"Fold-Induction Stroke, ino vs. cntrl",LOC497739 ILMN_66205,1.65
same,Signal Intensity Inosine,LOC497739 ILMN_66205,4864
same,"Fold-Induction Stroke, ino vs. cntrl",LOC497841 ILMN_51249,11.52
same,Signal Intensity Inosine,LOC497841 ILMN_51249,2841
same,"Fold-Induction Stroke, ino vs. cntrl",LOC498185 ILMN_58236,2.76
same,Signal Intensity Inosine,LOC498185 ILMN_58236,804
same,"Fold-Induction Stroke, ino vs. cntrl",LOC498276 ILMN_65617,2.56
same,Signal Intensity Inosine,LOC498276 ILMN_65617,3014
same,"Fold-Induction Stroke, ino vs. cntrl",LOC498279 ILMN_65961,4.07
same,Signal Intensity Inosine,LOC498279 ILMN_65961,8892
same,"Fold-Induction Stroke, ino vs. cntrl",LOC498335 ILMN_53325,25.26
same,Signal Intensity Inosine,LOC498335 ILMN_53325,3310
same,"Fold-Induction Stroke, ino vs. cntrl",LOC498614 ILMN_54303,1.05
same,Signal Intensity Inosine,LOC498614 ILMN_54303,2373
same,"Fold-Induction Stroke, ino vs. cntrl",LOC498957 ILMN_67281,1.28
same,Signal Intensity Inosine,LOC498957 ILMN_67281,1081
same,"Fold-Induction Stroke, ino vs. cntrl",LOC499244 ILMN_49099,2.24
same,Signal Intensity Inosine,LOC499244 ILMN_49099,14824
same,"Fold-Induction Stroke, ino vs. cntrl",LOC500226 ILMN_54711,2.10
same,Signal Intensity Inosine,LOC500226 ILMN_54711,7922
same,"Fold-Induction Stroke, ino vs. cntrl",LOC500804 ILMN_61346,2.35
same,Signal Intensity Inosine,LOC500804 ILMN_61346,5507
same,"Fold-Induction Stroke, ino vs. cntrl",Lap3 ILMN_57870,1.01
same,Signal Intensity Inosine,Lap3 ILMN_57870,918
same,"Fold-Induction Stroke, ino vs. cntrl",Lcpl ILMN_58058,2.76
same,Signal Intensity Inosine,Lcpl ILMN_58058,1306
same,"Fold-Induction Stroke, ino vs. cntrl",Lgals3bp ILMN_60037,3.00
same,Signal Intensity Inosine,Lgals3bp ILMN_60037,629
same,"Fold-Induction Stroke, ino vs. cntrl",Man2b1 ILMN_65999,2.64
same,Signal Intensity Inosine,Man2b1 ILMN_65999,1676
same,"Fold-Induction Stroke, ino vs. cntrl",Map2k6 ILMN_53013,1.19
same,Signal Intensity Inosine,Map2k6 ILMN_53013,3981
same,"Fold-Induction Stroke, ino vs. cntrl",Mt1a ILMN_53575,3.68
same,Signal Intensity Inosine,Mt1a ILMN_53575,3267
same,"Fold-Induction Stroke, ino vs. cntrl",Nfkbia ILMN_49934,2.69
same,Signal Intensity Inosine,Nfkbia ILMN_49934,3250
same,"Fold-Induction Stroke, ino vs. cntrl",Oplah ILMN_65374,2.05
same,Signal Intensity Inosine,Oplah ILMN_65374,2440
same,"Fold-Induction Stroke, ino vs. cntrl",Pfc ILMN_56164,2.02
same,Signal Intensity Inosine,Pfc ILMN_56164,1375
same,"Fold-Induction Stroke, ino vs. cntrl",Pkn1 ILMN_63766,1.69
same,Signal Intensity Inosine,Pkn1 ILMN_63766,2365
same,"Fold-Induction Stroke, ino vs. cntrl",Plcd1 ILMN_50502,1.90
same,Signal Intensity Inosine,Plcd1 ILMN_50502,1514
same,"Fold-Induction Stroke, ino vs. cntrl",Plek ILMN_57609,2.99
same,Signal Intensity Inosine,Plek ILMN_57609,1937
same,"Fold-Induction Stroke, ino vs. cntrl",Pnck ILMN_66828,1.65
same,Signal Intensity Inosine,Pnck ILMN_66828,8946
same,"Fold-Induction Stroke, ino vs. cntrl",Polrmt ILMN_59207,1.52
same,Signal Intensity Inosine,Polrmt ILMN_59207,1219
same,"Fold-Induction Stroke, ino vs. cntrl",Ppp1r14b ILMN_59774,2.26
same,Signal Intensity Inosine,Ppp1r14b ILMN_59774,2071
same,"Fold-Induction Stroke, ino vs. cntrl",Ptpn6 ILMN_61314,3.52
same,Signal Intensity Inosine,Ptpn6 ILMN_61314,957
same,"Fold-Induction Stroke, ino vs. cntrl",Ptprr ILMN_55987,1.04
same,Signal Intensity Inosine,Ptprr ILMN_55987,676
same,"Fold-Induction Stroke, ino vs. cntrl",RGD1309326 ILMN_60781,1.43
same,Signal Intensity Inosine,RGD1309326 ILMN_60781,2333
same,"Fold-Induction Stroke, ino vs. cntrl",RT1-Da ILMN_59933,11.11
same,Signal Intensity Inosine,RT1-Da ILMN_59933,3072
same,"Fold-Induction Stroke, ino vs. cntrl",Rbl2 ILMN_59080,1.30
same,Signal Intensity Inosine,Rbl2 ILMN_59080,1060
same,"Fold-Induction Stroke, ino vs. cntrl",Rfx1 ILMN_50833,1.51
same,Signal Intensity Inosine,Rfx1 ILMN_50833,4995
same,"Fold-Induction Stroke, ino vs. cntrl",Rhoj ILMN_58882,2.67
same,Signal Intensity Inosine,Rhoj ILMN_58882,588
same,"Fold-Induction Stroke, ino vs. cntrl",Rhot2 ILMN_62537,1.68
same,Signal Intensity Inosine,Rhot2 ILMN_62537,1112
same,"Fold-Induction Stroke, ino vs. cntrl",Rnaset2 ILMN_55431,2.31
same,Signal Intensity Inosine,Rnaset2 ILMN_55431,7227
same,"Fold-Induction Stroke, ino vs. cntrl",Serpinb1a ILMN_57422,2.68
same,Signal Intensity Inosine,Serpinb1a ILMN_57422,589
same,"Fold-Induction Stroke, ino vs. cntrl",Serping1 ILMN_60046,3.19
same,Signal Intensity Inosine,Serping1 ILMN_60046,1251
same,"Fold-Induction Stroke, ino vs. cntrl",Sgpp1 ILMN_57304,0.44
same,Signal Intensity Inosine,Sgpp1 ILMN_57304,316
same,"Fold-Induction Stroke, ino vs. cntrl",Slc9a1 ILMN_53105,1.32
same,Signal Intensity Inosine,Slc9a1 ILMN_53105,2100
same,"Fold-Induction Stroke, ino vs. cntrl",Slc35b4 ILMN_68450,1.41
same,Signal Intensity Inosine,Slc35b4 ILMN_68450,430
same,"Fold-Induction Stroke, ino vs. cntrl",Smoc2 ILMN_60870,3.79
same,Signal Intensity Inosine,Smoc2 ILMN_60870,1123
same,"Fold-Induction Stroke, ino vs. cntrl",Soc ILMN_57817,1.36
same,Signal Intensity Inosine,Soc ILMN_57817,1341
same,"Fold-Induction Stroke, ino vs. cntrl",Srebf1 ILMN_51834,1.47
same,Signal Intensity Inosine,Srebf1 ILMN_51834,1069
same,"Fold-Induction Stroke, ino vs. cntrl",Tcirg1 ILMN_52949,2.81
same,Signal Intensity Inosine,Tcirg1 ILMN_52949,2173
same,"Fold-Induction Stroke, ino vs. cntrl",Timp1 ILMN_62559,3.57
same,Signal Intensity Inosine,Timp1 ILMN_62559,2293
same,"Fold-Induction Stroke, ino vs. cntrl",Tle2 ILMN_54011,3.03
same,Signal Intensity Inosine,Tle2 ILMN_54011,2295
same,"Fold-Induction Stroke, ino vs. cntrl",Tm6p1 ILMN_57902,1.99
same,Signal Intensity Inosine,Tm6p1 ILMN_57902,1532
same,"Fold-Induction Stroke, ino vs. cntrl",Trim39 ILMN_54591,1.35
same,Signal Intensity Inosine,Trim39 ILMN_54591,1351
same,"Fold-Induction Stroke, ino vs. cntrl",Unc93b ILMN_53114,2.10
same,Signal Intensity Inosine,Unc93b ILMN_53114,600
same,"Signal Intensity, Treatment after Stroke: Inosine",gene P2rxl1 (ILMN_68585),246
same,"Signal Intensity, Treatment after Stroke: Inosine",gene Tm7sf2 (ILMN_58100),419
